Like-named read-outs stand apart in the source and are kept apart here.
What was measured:
wild-type HIV-1 protease = wild-type HIV-1 protease (Human immunodeficiency virus type 1 group M subtype B, UniProt P04585); assay: Assay for inhibition of microbial expressed HIV protease; type: biochemical
Experimental: Assay for Inhibition of Microbial Expressed HIV Protease
Inhibition studies of the reaction of the protease (which was expressed in Eschericia coli) with a peptide substrate [Val-Ser-Gln-Asn-(betanapthyl)Ala-Pro-Ile-Val]. The inhibitor is first preincubated with the enzyme in assay buffer (50 mM sodium acetate, pH 5.5, 100 mM NaCl, and 0.1% BSA) for 30 minutes at room temperature. Substrate is added to 440 micromolar in a total volume of 80 microliters containing 5 picomolar HIV-1 protease, and the reaction is incubated for 1 hour at 30° C. The reaction is quenched by addition of 120 microliters of 10% phosphoric acid, and product formation is determined after separation of product and substrate on a Vydac C18 column connected to an Alliance high performance liquid chromatography system (Waters Corporation). The extent of inhibition of the reaction is determined from the peak area of the products.

[1] = test system: acute HIV infection of T-lymphoid cells; assay: Assay for inhibition of HIV replication (spread assay); type: cell-based, HIV-1; conditions: Human immunodeficiency virus 1, T-lymphoid
Experimental: • Assay for Inhibition of HIV Replication
Assays for the inhibition of acute HIV infection of T-lymphoid cells were conducted in accordance with Vacca, J. P. et al., Proc. Natl. Acad. Sci. USA 1994, 91: 4096.

[2] = wild-type HIV-1 protease expressed in E. coli, peptide substrate, pH 5.5, read-out: Enzyme Inhibition - IC50

Compound: CC[C@@H](CCC[C@@H](CO)N(CCCF)S(=O)(=O)c1ccc(N)cc1)NC(=O)[C@@H](NC(=O)OC)C(c1ccccc1)c1ccccc1 [Example D15, N-{(1S,5S)-5-[[(4-aminophenyl)sulfonyl](3-fluoropropyl)amino]-1-ethyl-6-hydroxyhexyl}-Nα-(methoxycarbonyl)-β-phenyl-L-phenylalaninamide]
- IC50 (wild-type HIV-1 protease; [2]): 0.268 nM
- IC95 ([1]; read-out: Spread - IC95): 39 nM

Compound: COC(=O)N[C@H](C(=O)N[C@H](CCC[C@@H](CO)N(CCC(C)C)S(=O)(=O)c1ccc(N)c(F)c1)C(C)C)C(c1ccccc1)c1ccccc1 [Example D16, N-{(1R,5S)-5-[[(4-amino-3-fluorophenyl)sulfonyl](3-methylbutyl)amino]-6-hydroxy-1-isopropylhexyl}-Nα-(methoxycarbonyl)-β-phenyl-L-phenylalaninamide]
- IC50 (wild-type HIV-1 protease; [2]): 0.329 nM
- IC95 ([1]; read-out: Spread - IC95): 152 nM

Compound: CC[C@@H](CCC[C@@H](CO)N(CCC(C)C)S(=O)(=O)c1ccc(N)c(Br)c1)NC(=O)[C@@H](NC(=O)OC)C(c1ccccc1)c1ccccc1 [Example D17, N-{(1S,5S)-5-[[(4-amino-3-bromophenyl)sulfonyl](3-methylbutyl)amino]-1-ethyl-6-hydroxyhexyl}-Nα-(methoxycarbonyl)-β-phenyl-L-phenylalaninamide]
- IC50 (wild-type HIV-1 protease; [2]): 0.38 nM
- IC95 ([1]; read-out: Spread - IC95): 154 nM

Compound: COC(=O)N[C@H](C(=O)N[C@H](CCC[C@@H](CO)N(CCC(C)C)S(=O)(=O)c1ccc(N)cc1)C1CC1)C(c1ccccc1)c1ccccc1 [Example E1]
- IC50 (wild-type HIV-1 protease): 0.03 nM
- IC95 ([1]; read-out: Spread - IC95): 11 nM

Compound: COC(=O)N[C@H](C(=O)N[C@H](CCC[C@@H](CO)N(CCC(C)C)S(=O)(=O)c1ccc(CO)c(F)c1)C1CC1)C(c1ccc(F)cc1)c1ccc(F)cc1 [Example E2, N-{(1R,5S)-1-cyclopropyl-5-[{[3-fluoro-4-(hydroxymethyl)phenyl]sulfonyl}(3-methylbutyl)amino]-6-hydroxyhexyl}-4-fluoro-β-(4-fluorophenyl)-Nα-(methoxycarbonyl)-L-phenylalaninamide]
- IC50 (wild-type HIV-1 protease; [2]): 0.017 nM
- IC95 ([1]; read-out: Spread - IC95): 39 nM

Compound: COC(=O)N[C@H](C(=O)N[C@H](CCC[C@@H](CO)N(CCC(C)C)S(=O)(=O)c1ccc(N)c(F)c1)C1CC1)C(c1ccccc1)c1ccccc1 [Example E3, N-{(1R,5S)-5-[[(4-amino-3-fluorophenyl)sulfonyl](3-methylbutyl)amino]-1-cyclopropyl-6-hydroxyhexyl}-Nα-(methoxycarbonyl)-β-phenyl-L-phenylalaninamide]
- IC50 (wild-type HIV-1 protease; [2]): 0.057 nM
- IC95 ([1]; read-out: Spread - IC95): 11 nM

Compound: COC(=O)N[C@H](C(=O)N[C@H](CCC[C@@H](CO)N(CCC(C)C)S(=O)(=O)c1ccc(Cl)cc1)C1CC1)C(c1ccccc1)c1ccccc1 [Example E4, N-{(1R,5S)-5-[[(4-chlorophenyl)sulfonyl](3-methylbutyl)amino]-1-cyclopropyl-6-hydroxyhexyl}-Nα-(methoxycarbonyl)-β-phenyl-L-phenylalaninamide]
- IC50 (wild-type HIV-1 protease; [2]): 0.201 nM
- IC95 ([1]; read-out: Spread - IC95): 22 nM

Compound: COC(=O)N[C@H](C(=O)N[C@H](CCC[C@@H](CO)N(CCC(C)C)S(=O)(=O)c1ccc(C(C)=O)cc1)C1CC1)C(c1ccc(F)cc1)c1ccc(F)cc1 [Example E5, N-{(1R,5S)-5-[[(4-acetylphenyl)sulfonyl](3-methylbutyl)amino]-1-cyclopropyl-6-hydroxyhexyl}-4-fluoro-β-(4-fluorophenyl)-Nα-(methoxycarbonyl)-L-phenylalaninamide]
- IC50 (wild-type HIV-1 protease; [2]): 0.053 nM
- IC95 ([1]; read-out: Spread - IC95): 47 nM

Compound: COC(=O)N[C@H](C(=O)N[C@H](CCC[C@@H](CO)N(CC(C)C)S(=O)(=O)c1ccc2ncsc2c1)C1CC1)C(c1ccccc1)c1ccccc1 [Example E6, N-{(1R,5S)-5-[(1,3-benzothiazol-6-ylsulfonyl)(isobutyl)amino]-1-cyclopropyl-6-hydroxyhexyl}-Nα-(methoxycarbonyl)-β-phenyl-L-phenylalaninamide]
- IC50 (wild-type HIV-1 protease; [2]): 0.352 nM
- IC95 ([1]; read-out: Spread - IC95): 27 nM

Compound: COC(=O)N[C@H](C(=O)N[C@H](CCC[C@@H](CO)N(CCC(C)C)S(=O)(=O)c1ccc(N)cc1)C1CC1)C(c1ccc(F)cc1)c1ccc(F)cc1 [Example E7, N-{(1R,5S)-5-[[(4-aminophenyl)sulfonyl](3-methylbutyl)amino]-1-cyclopropyl-6-hydroxyhexyl}-4-fluoro-β-(4-fluorophenyl)-Nα-(methoxycarbonyl)-L-phenylalaninamide]
- IC50 (wild-type HIV-1 protease; [2]): 0.066 nM
- IC95 ([1]; read-out: Spread - IC95): 39 nM

Compound: COC(=O)N[C@@H](Cc1ccccc1Cl)C(=O)N[C@H](CCC[C@@H](CO)N(CCC(C)C)S(=O)(=O)c1ccc2ncsc2c1)C1CC1 [Example E8, N-{(1R,5S)-5-[(1,3-benzothiazol-6-ylsulfonyl)(3-methylbutyl)amino]-1-cyclopropyl-6-hydroxyhexyl}-2-chloro-Nα-(methoxycarbonyl)-L-phenylalaninamide]
- IC50 (wild-type HIV-1 protease; [2]): 1.4 nM
- IC95 ([1]; read-out: Spread - IC95): 195 nM

Compound: COC(=O)N[C@@H](Cc1cccc2ccccc12)C(=O)N[C@H](CCC[C@@H](CO)N(CCC(C)C)S(=O)(=O)c1ccc(N)cc1)C1CC1 [Example E9, methyl [(1S)-2-({(1R,5S)-5-[[(4-aminophenyl)sulfonyl](3-methylbutyl)amino]-1-cyclopropyl-6-hydroxyhexyl}amino)-1-(1-naphthylmethyl)-2-oxoethyl]carbamate]
- IC50 (wild-type HIV-1 protease; [2]): 0.354 nM
- IC95 ([1]; read-out: Spread - IC95): 117 nM

Compound: CCCN([C@H](CO)CCC[C@H](C)NC(=O)[C@@H](NC(=O)OC)C(c1ccccc1)c1ccccc1)S(=O)(=O)c1ccc(N)cc1 [Example F2, N-{(1S,5S)-5-[[(4-aminophenyl)sulfonyl](propyl)amino]-6-hydroxy-1-methylhexyl}-Nα-(methoxycarbonyl)-β-phenyl-L-phenylalaninamide]
- IC50 (wild-type HIV-1 protease; [2]): 0.028 nM
- IC95 ([1]; read-out: Spread - IC95 (nM)): 23 nM

Compound: CC[C@@H](CCC[C@@H](CO)N(CCC(C)C)S(=O)(=O)c1ccc(N)cc1)NC(=O)[C@H](Cc1ccccc1Br)NC(=O)OC [Example F3, N-{(1S,5S)-5-[[(4-aminophenyl)sulfonyl](3-methylbutyl)amino]-1-ethyl-6-hydroxyhexyl}-2-bromo-Nα-(methoxycarbonyl)-L-phenylalaninamide]
- IC50 (wild-type HIV-1 protease; [2]): 0.196 nM
- IC95 ([1]; read-out: Spread - IC95): 25 nM

Compound: COC(=O)N[C@H](C(=O)N[C@@H](C)CCC[C@@H](CO)N(CCCF)S(=O)(=O)c1ccc(N)cc1)C(c1ccccc1)c1ccccc1 [Example F4, N-{(1S,5S)-5-[[(4-aminophenyl)sulfonyl](3-fluoropropyl)amino]-6-hydroxy-1-methylhexyl}-Nα-(methoxycarbonyl)-β-phenyl-L-phenylalaninamide]
- IC50 (wild-type HIV-1 protease; [2]): 0.055 nM
- IC95 ([1]; read-out: Spread - IC95): 65 nM

Compound: CCCN([C@H](CO)CCC[C@H](CC)NC(=O)[C@@H](NC(=O)OC)C(c1ccccc1)c1ccccc1)S(=O)(=O)c1ccc(N)cc1 [Example F5, N-{(1S,5S)-5-[[(4-aminophenyl)sulfonyl](propyl)amino]-1-ethyl-6-hydroxyhexyl}-Nα-(methoxycarbonyl)-β-phenyl-L-phenylalaninamide]
- IC50 (wild-type HIV-1 protease; [2]): 0.163 nM
- IC95 ([1]; read-out: Spread - IC95): 54 nM

Compound: CC[C@@H](CCC[C@@H](CO)N(CCC(C)C)S(=O)(=O)c1ccc(N)cc1)NC(=O)[C@@H](NC(=O)OC)C1c2ccccc2C=Cc2ccccc21 [Example F6, methyl [2-({(1S,5S)-5-[[(4-aminophenyl)sulfonyl](3-methylbutyl)amino]-1-ethyl-6-hydroxyhexyl}amino)-1-(5H-dibenzo[a,d][7]annulen-5-yl)-2-oxoethyl]carbamate]
- IC50 (wild-type HIV-1 protease; [2]): 0.01 nM
- IC95 ([1]; read-out: Spread - IC95): 10 nM

Compound: CCCN([C@H](CO)CCC[C@H](CC)NC(=O)[C@H](Cc1ccccc1Br)NC(=O)OC)S(=O)(=O)c1ccc(N)cc1 [Example F7, N-{(1S,5S)-5-[[(4-aminophenyl)sulfonyl](propyl)amino]-1-ethyl-6-hydroxyhexyl}-2-bromo-Nα-(methoxycarbonyl)-L-phenylalaninamide]
- IC50 (wild-type HIV-1 protease; [2]): 0.862 nM
- IC95 ([1]; read-out: Spread - IC95): 251 nM

Compound: CCCN([C@H](CO)CCC[C@H](CC)NC(=O)[C@H](Cc1ccccc1Cl)NC(=O)OC)S(=O)(=O)c1ccc(N)cc1 [Example F8, N-{(1S,5S)-5-[[(4-aminophenyl)sulfonyl](propyl)amino]-1-ethyl-6-hydroxyhexyl}-2-chloro-Nα-(methoxycarbonyl)-L-phenylalaninamide]
- IC50 (wild-type HIV-1 protease; [2]): 1.45 nM
- IC95 ([1]; read-out: Spread - IC95): 249 nM

Compound: CC[C@@H](CCC[C@@H](CO)N(CCC(C)C)S(=O)(=O)c1ccc(N)cc1)NC(=O)[C@@]1(NC(=O)OC(C)(C)C)C[C@@H]1c1ccccc1 [Example F9, tert-butyl {(1R,2R)-1-[({(1S,5S)-5-[[(4-aminophenyl)sulfonyl](3-methylbutyl)amino]-1-ethyl-6-hydroxyhexyl}amino)carbonyl]-2-phenylcyclopropyl}carbamate]
- IC50 (wild-type HIV-1 protease; [2]): 0.064 nM
- IC95 ([1]; read-out: Spread - IC95): 76 nM

Compound: CC[C@@H](CCC[C@@H](CO)N(CCC(C)C)S(=O)(=O)c1ccc(N)cc1)NC(=O)[C@@H](NC(=O)OCc1ccncc1)C(c1ccccc1)c1ccccc1 [Example F10, N-{(1S,55)-5-[[(4-aminophenyl)sulfonyl](3-methylbutyl)amino]-1-ethyl-6-hydroxyhexyl}-β-phenyl-Nα-[(pyridin-4-ylmethoxy)carbonyl]-L-phenylalaninamide]
- IC50 (wild-type HIV-1 protease; [2]): 0.01 nM
- IC95 ([1]; read-out: Spread - IC95): 17 nM

Compound: CC[C@@H](CCC[C@@H](CO)N(CCC(C)C)S(=O)(=O)c1ccc(N)cc1)NC(=O)[C@@H](NC(=O)OC)C1c2ccccc2Oc2ccccc21 [Example F11, methyl [2-({(1S,5S)-5-[[(4-aminophenyl)sulfonyl](3-methylbutyl)amino]-1-ethyl-6-hydroxyhexyl}amino)-2-oxo-1-(9H-xanthen-9-yl)ethyl]carbamate]
- IC50 (wild-type HIV-1 protease; [2]): 0.021 nM
- IC95 ([1]; read-out: Spread - IC95): 38 nM
